Results from patent publication US11000033B2, “Ketone or oxime compound, and herbicide” (NISSAN CHEMICAL CORPORATION, priority 2014, dated 2021).

Legend:
Type in all cases: in vivo
[1] = test system: Echinochloa oryzacola Vasing.; assay: Test Example 1: herbicidal activity, application before weed generation in submerged conditions (symbol A); settings: application herbicide amount 320 g/ha
In short: (§1)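 Ratings (5: ≥90%, near complete withering; 4: 70–<90%; 3: 40–<70%; 2: 20–<40%; 1: 5–<20%; 0: ≤5%) were assigned 3 weeks after the diluted emulsion was applied to the water surface of freshly sown, submerged pots.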

Monochoria vaginalis [2] = assay: Test Example 1: herbicidal activity, application before weed generation in submerged conditions (symbol C); settings: application herbicide amount 320 g/ha
In short: as §1

[3] = test system: Echinochloa oryzacola Vasing.; assay: Test Example 2: herbicidal activity, application during weed generation in submerged conditions (symbol A); settings: Table 23; application herbicide amount 320 g/ha; grade 0-5 by criteria of Test Example 1
In short: (§2)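 Weeds emerging under flooded conditions were treated with compound formulated as an emulsion and diluted with water to the intended herbicide amount, poured onto the surface of 4 cm standing water. Seeds had been co-sown in alluvial soil; plants grew at 25° C. to 30° C. and were assessed after 3 weeks.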

Scirpus juncoides = assay: Test Example 2: herbicidal activity, application during weed generation in submerged conditions (symbol B); settings: Table 23; application herbicide amount 320 g/ha; grade 0-5 by criteria of Test Example 1
In short: as §2

Monochoria vaginalis [4] = assay: Test Example 2: herbicidal activity, application during weed generation in submerged conditions (symbol C); settings: Table 23; application herbicide amount 320 g/ha; grade 0-5 by criteria of Test Example 1
In short: as §2

Digitaria ciliaris = assay: Test Example 4: herbicidal effect by soil treatment (symbol F); settings: for F (Digitaria ciliaris) herbicidal effect grade: application herbicide amount 320 g/ha
In short: (§3)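 Seeds were sown in sterilized diluvial soil, covered with about 1.5 cm of soil, and the soil surface was sprayed with a water-diluted emulsion of the compound at a predetermined rate. Plants grew in a greenhouse at 25° C. to 30° C.; effects were scored visually 3 weeks after application.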

Avena fatua = assay: Test Example 4: herbicidal effect by soil treatment (symbol I); settings: for I (Avena fatua) herbicidal effect grade: application herbicide amount 320 g/ha
In short: as §3

Alopecurus myosuroides = assay: Test Example 4: herbicidal effect by soil treatment (symbol J); settings: for J (Alopecurus myosuroides) herbicidal effect grade: application herbicide amount 320 g/ha
In short: as §3

Abutilon theophrasti [5] = assay: Test Example 4: herbicidal effect by soil treatment (symbol M); settings: for M (Abutilon theophrasti) herbicidal effect grade: application herbicide amount 320 g/ha
In short: as §3

Chenopodium album = assay: Test Example 4: herbicidal effect by soil treatment (symbol O); settings: for O (Chenopodium album) herbicidal effect grade: application herbicide amount 320 g/ha
In short: as §3

Galium spurium = assay: Test Example 4: herbicidal effect by soil treatment (symbol Q); settings: for Q (Galium spurium) herbicidal effect grade: application herbicide amount 320 g/ha
In short: as §3

rice = assay: Test Example 4: effect on crop by soil treatment (symbol b); settings: for b (directly sowed rice plant) effect on crop grade: application herbicide amount 320 g/ha
In short: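 Greenhouse culture at 25° C. to 30° C. followed sowing of seed in spots on sterilized diluvial soil with a soil cover close to 1.5 cm thick.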

[6] = test system: Echinochloa crus-galli var. crus-galli; assay: Test Example 5: herbicidal effect by foliage application, plastic box (symbol H); settings: 320 g/ha, 3 weeks after application
In short: (§4)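 Visual herbicidal score, taken three weeks post-application, of seedlings sprayed on the foliage with water-diluted emulsion at a predetermined amount; plants were 14 days old, greenhouse-raised at 25° C. to 30° C.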

Abutilon theophrasti [7] = assay: Test Example 5: herbicidal effect by foliage application, plastic box (symbol M); settings: 320 g/ha, 3 weeks after application
In short: as §4

Amaranthus retroflexus = assay: Test Example 5: herbicidal effect by foliage application, plastic box (symbol N); settings: 320 g/ha, 3 weeks after application
In short: as §4

beet = assay: Test Example 5: effect on crop by foliage application, plastic box (symbol f); settings: 320 g/ha, 3 weeks after application
In short: (§5)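 Crop seed is sown alongside grass and broadleaf weed species in spots in sterilized diluvial soil, then covered to a depth of about 1.5 cm. Plants grow in a greenhouse kept at 25° C. to 30° C.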

rapeseed = assay: Test Example 5: effect on crop by foliage application, plastic box (symbol g); settings: 320 g/ha, 3 weeks after application
In short: as §5

CON=C(CC1CC(O)=C(c2c(C)cc(C)cc2C)C1=O)c1ccccc1 (stereo not shown) [1-047]
Herbicidal effect grade, A: Echinochloa oryzacola Vasing. [1]: 4 (Herbicidal ratio of 70% or higher and lower than 90%) | Herbicidal effect grade, C: Monochoria vaginalis (Monochoria vaginalis [2]): 0 (Herbicidal ratio of 5% or lower (almost no effect)) | Herbicidal effect grade, A: Echinochloa oryzacola Vasing. [3]: 2 (Herbicidal ratio of 20% or higher and lower than 40%) | Herbicidal effect grade, B: Scirpus juncoides (Scirpus juncoides): 0 (Herbicidal ratio of 5% or lower (almost no effect)) | Herbicidal effect grade, C: Monochoria vaginalis (Monochoria vaginalis [4]): 0 (Herbicidal ratio of 5% or lower (almost no effect)) | F (Digitaria ciliaris) herbicidal effect grade (Digitaria ciliaris): 3 (Herbicidal ratio of 40% or higher and lower than 70%) | I (Avena fatua) herbicidal effect grade (Avena fatua): 0 (Herbicidal ratio of 5% or lower (almost no effect)) | J (Alopecurus myosuroides) herbicidal effect grade (Alopecurus myosuroides): 0 (Herbicidal ratio of 5% or lower (almost no effect)) | M (Abutilon theophrasti) herbicidal effect grade (Abutilon theophrasti [5]): 0 (Herbicidal ratio of 5% or lower (almost no effect)) | O (Chenopodium album) herbicidal effect grade (Chenopodium album): 0 (Herbicidal ratio of 5% or lower (almost no effect)) | Q (Galium spurium) herbicidal effect grade (Galium spurium): 0 (Herbicidal ratio of 5% or lower (almost no effect)) | b (directly sowed rice plant) effect on crop grade (rice): 4 (Herbicidal ratio of 70% or higher and lower than 90%) | H: Echinochloa crus-galli var. crus-galli, herbicidal effect grade [6]: 3 (Herbicidal ratio of 40% or higher and lower than 70%) | M: Abutilon theophrasti, herbicidal effect grade (Abutilon theophrasti [7]): 0 (Herbicidal ratio of 5% or lower (almost no effect)) | N: Amaranthus retroflexus, herbicidal effect grade (Amaranthus retroflexus): 0 (Herbicidal ratio of 5% or lower (almost no effect)) | f: beet, effect on crop grade (beet): 0 (Herbicidal ratio of 5% or lower (almost no effect)) | g: rapeseed, effect on crop grade (rapeseed): 3 (Herbicidal ratio of 40% or higher and lower than 70%)

CCCC(CC1CC(O)=C(c2c(C)cc(C)cc2C)C1=O)=NOC (stereo not shown) [1-062]
Herbicidal effect grade, A: Echinochloa oryzacola Vasing. [1]: 5 (Herbicidal ratio of 90% or more (almost completely withered)) | Herbicidal effect grade, C: Monochoria vaginalis (Monochoria vaginalis [2]): 1 (Herbicidal ratio of 5% or higher and lower than 20%) | Herbicidal effect grade, A: Echinochloa oryzacola Vasing. [3]: 3 (Herbicidal ratio of 40% or higher and lower than 70%) | Herbicidal effect grade, B: Scirpus juncoides (Scirpus juncoides): 0 (Herbicidal ratio of 5% or lower (almost no effect)) | Herbicidal effect grade, C: Monochoria vaginalis (Monochoria vaginalis [4]): 0 (Herbicidal ratio of 5% or lower (almost no effect)) | F (Digitaria ciliaris) herbicidal effect grade (Digitaria ciliaris): 5 (Herbicidal ratio of 90% or more (almost completely withered)) | I (Avena fatua) herbicidal effect grade (Avena fatua): 0 (Herbicidal ratio of 5% or lower (almost no effect)) | J (Alopecurus myosuroides) herbicidal effect grade (Alopecurus myosuroides): 5 (Herbicidal ratio of 90% or more (almost completely withered)) | M (Abutilon theophrasti) herbicidal effect grade (Abutilon theophrasti [5]): 0 (Herbicidal ratio of 5% or lower (almost no effect)) | O (Chenopodium album) herbicidal effect grade (Chenopodium album): 0 (Herbicidal ratio of 5% or lower (almost no effect)) | Q (Galium spurium) herbicidal effect grade (Galium spurium): 0 (Herbicidal ratio of 5% or lower (almost no effect)) | b (directly sowed rice plant) effect on crop grade (rice): 5 (Herbicidal ratio of 90% or more (almost completely withered)) | H: Echinochloa crus-galli var. crus-galli, herbicidal effect grade [6]: 4 (Herbicidal ratio of 70% or higher and lower than 90%) | M: Abutilon theophrasti, herbicidal effect grade (Abutilon theophrasti [7]): 0 (Herbicidal ratio of 5% or lower (almost no effect)) | N: Amaranthus retroflexus, herbicidal effect grade (Amaranthus retroflexus): 0 (Herbicidal ratio of 5% or lower (almost no effect)) | f: beet, effect on crop grade (beet): 0 (Herbicidal ratio of 5% or lower (almost no effect)) | g: rapeseed, effect on crop grade (rapeseed): 3 (Herbicidal ratio of 40% or higher and lower than 70%)

CON=C(CC1CC1)CC1CC(O)=C(c2c(C)cc(C)cc2C)C1=O (stereo not shown) [1-070]
Herbicidal effect grade, A: Echinochloa oryzacola Vasing. [1]: 4 (Herbicidal ratio of 70% or higher and lower than 90%) | Herbicidal effect grade, C: Monochoria vaginalis (Monochoria vaginalis [2]): 0 (Herbicidal ratio of 5% or lower (almost no effect)) | Herbicidal effect grade, A: Echinochloa oryzacola Vasing. [3]: 4 (Herbicidal ratio of 70% or higher and lower than 90%) | Herbicidal effect grade, B: Scirpus juncoides (Scirpus juncoides): 0 (Herbicidal ratio of 5% or lower (almost no effect)) | Herbicidal effect grade, C: Monochoria vaginalis (Monochoria vaginalis [4]): 0 (Herbicidal ratio of 5% or lower (almost no effect)) | F (Digitaria ciliaris) herbicidal effect grade (Digitaria ciliaris): 4 (Herbicidal ratio of 70% or higher and lower than 90%) | I (Avena fatua) herbicidal effect grade (Avena fatua): 0 (Herbicidal ratio of 5% or lower (almost no effect)) | J (Alopecurus myosuroides) herbicidal effect grade (Alopecurus myosuroides): 5 (Herbicidal ratio of 90% or more (almost completely withered)) | M (Abutilon theophrasti) herbicidal effect grade (Abutilon theophrasti [5]): 0 (Herbicidal ratio of 5% or lower (almost no effect)) | O (Chenopodium album) herbicidal effect grade (Chenopodium album): 0 (Herbicidal ratio of 5% or lower (almost no effect)) | Q (Galium spurium) herbicidal effect grade (Galium spurium): 0 (Herbicidal ratio of 5% or lower (almost no effect)) | b (directly sowed rice plant) effect on crop grade (rice): 5 (Herbicidal ratio of 90% or more (almost completely withered)) | H: Echinochloa crus-galli var. crus-galli, herbicidal effect grade [6]: 3 (Herbicidal ratio of 40% or higher and lower than 70%) | M: Abutilon theophrasti, herbicidal effect grade (Abutilon theophrasti [7]): 0 (Herbicidal ratio of 5% or lower (almost no effect)) | N: Amaranthus retroflexus, herbicidal effect grade (Amaranthus retroflexus): 0 (Herbicidal ratio of 5% or lower (almost no effect)) | f: beet, effect on crop grade (beet): 0 (Herbicidal ratio of 5% or lower (almost no effect)) | g: rapeseed, effect on crop grade (rapeseed): 3 (Herbicidal ratio of 40% or higher and lower than 70%)

CCC(C)C(CC1CC(O)=C(c2c(C)cc(C)cc2C)C1=O)=NOC (stereo not shown) [1-066]
Herbicidal effect grade, A: Echinochloa oryzacola Vasing. [1]: 4 (Herbicidal ratio of 70% or higher and lower than 90%) | Herbicidal effect grade, C: Monochoria vaginalis (Monochoria vaginalis [2]): 0 (Herbicidal ratio of 5% or lower (almost no effect)) | Herbicidal effect grade, A: Echinochloa oryzacola Vasing. [3]: 2 (Herbicidal ratio of 20% or higher and lower than 40%) | Herbicidal effect grade, B: Scirpus juncoides (Scirpus juncoides): 0 (Herbicidal ratio of 5% or lower (almost no effect)) | Herbicidal effect grade, C: Monochoria vaginalis (Monochoria vaginalis [4]): 0 (Herbicidal ratio of 5% or lower (almost no effect)) | F (Digitaria ciliaris) herbicidal effect grade (Digitaria ciliaris): 4 (Herbicidal ratio of 70% or higher and lower than 90%) | I (Avena fatua) herbicidal effect grade (Avena fatua): 0 (Herbicidal ratio of 5% or lower (almost no effect)) | J (Alopecurus myosuroides) herbicidal effect grade (Alopecurus myosuroides): 5 (Herbicidal ratio of 90% or more (almost completely withered)) | M (Abutilon theophrasti) herbicidal effect grade (Abutilon theophrasti [5]): 0 (Herbicidal ratio of 5% or lower (almost no effect)) | O (Chenopodium album) herbicidal effect grade (Chenopodium album): 0 (Herbicidal ratio of 5% or lower (almost no effect)) | Q (Galium spurium) herbicidal effect grade (Galium spurium): 0 (Herbicidal ratio of 5% or lower (almost no effect)) | b (directly sowed rice plant) effect on crop grade (rice): 5 (Herbicidal ratio of 90% or more (almost completely withered)) | H: Echinochloa crus-galli var. crus-galli, herbicidal effect grade [6]: 5 (Herbicidal ratio of 90% or more (almost completely withered)) | M: Abutilon theophrasti, herbicidal effect grade (Abutilon theophrasti [7]): 1 (Herbicidal ratio of 5% or higher and lower than 20%) | N: Amaranthus retroflexus, herbicidal effect grade (Amaranthus retroflexus): 0 (Herbicidal ratio of 5% or lower (almost no effect)) | f: beet, effect on crop grade (beet): 0 (Herbicidal ratio of 5% or lower (almost no effect)) | g: rapeseed, effect on crop grade (rapeseed): 3 (Herbicidal ratio of 40% or higher and lower than 70%)

COCC(=O)OC1=C(c2c(C)cc(C)cc2C)C(=O)C(CC(C)=NOC)C1 (stereo not shown) [1-093]
Herbicidal effect grade, A: Echinochloa oryzacola Vasing. [1]: 5 (Herbicidal ratio of 90% or more (almost completely withered)) | Herbicidal effect grade, C: Monochoria vaginalis (Monochoria vaginalis [2]): 2 (Herbicidal ratio of 20% or higher and lower than 40%) | Herbicidal effect grade, A: Echinochloa oryzacola Vasing. [3]: 5 (Herbicidal ratio of 90% or more (almost completely withered)) | Herbicidal effect grade, B: Scirpus juncoides (Scirpus juncoides): 5 (Herbicidal ratio of 90% or more (almost completely withered)) | Herbicidal effect grade, C: Monochoria vaginalis (Monochoria vaginalis [4]): 3 (Herbicidal ratio of 40% or higher and lower than 70%) | F: Digitaria ciliaris, herbicidal effect grade (Digitaria ciliaris; 320 g/ha): 5 (Herbicidal ratio of 90% or more (almost completely withered)) | I: Avena fatua, herbicidal effect grade (Avena fatua; 320 g/ha): 3 (Herbicidal ratio of 40% or higher and lower than 70%) | J: Alopecurus myosuroides, herbicidal effect grade (Alopecurus myosuroides; 320 g/ha): 5 (Herbicidal ratio of 90% or more (almost completely withered)) | M: Abutilon theophrasti, herbicidal effect grade (Abutilon theophrasti [5]; 320 g/ha): 4 (Herbicidal ratio of 70% or higher and lower than 90%) | O: Chenopodium album, herbicidal effect grade (Chenopodium album; 320 g/ha): 0 (Herbicidal ratio of 5% or lower (almost no effect)) | Q: Galium spurium, herbicidal effect grade (Galium spurium; 320 g/ha): 0 (Herbicidal ratio of 5% or lower (almost no effect)) | b: directly sowed rice plant, effect grade on crop (rice; 320 g/ha): 5 (Herbicidal ratio of 90% or more (almost completely withered)) | H: Echinochloa crus-galli var. crus-galli, herbicidal effect (criteria 0-5) [6]: 5 (Herbicidal ratio of 90% or more (almost completely withered)) | M: Abutilon theophrasti, herbicidal effect (criteria 0-5) (Abutilon theophrasti [7]): 4 (Herbicidal ratio of 70% or higher and lower than 90%) | N: Amaranthus retroflexus, herbicidal effect (criteria 0-5) (Amaranthus retroflexus): 4 (Herbicidal ratio of 70% or higher and lower than 90%) | f: beet, effect on crop (criteria 0-5) (beet): 0 (Herbicidal ratio of 5% or lower (almost no effect)) | g: rapeseed, effect on crop (criteria 0-5) (rapeseed): 4 (Herbicidal ratio of 70% or higher and lower than 90%)
